Data on eleven compounds can be found in patent US10869903B2, “Probiotic and prebiotic compositions, and methods of use thereof for treatment and prevention of graft versus host disease” (Evelo Biosciences, Inc., priority 2014, dated 2020).

The nature of series [1]: Normal human volunteer study of D-xylose: CRP, serum cytokines, T-cell markers. The format is in vivo, healthy, adult volunteers. An excerpt:
Blood was collected at pre-specified pre- and post-ingestion time points to evaluate C-reactive protein (CRP), serum cytokines (tumor necrosis factor alpha [TNF-α], interleukin [IL]-2, IL-6, interferon gamma [IFN-γ], and IL-10), and T-cell markers CD3, CD4, CD8, CD25, and FOXP3. Plasma was also stored and may be tested for biomarkers and/or metabolic markers for up to 7 years.
Summary statistics (n, mean, standard deviation, median, minimum, and maximum) were presented for serum concentrations of CRP, flow cytometry T-cell markers (CD3, CD4, CD8, CD25, and FOXP3), and cytokines (TNF-α, IL-2, IL-6, IFN-γ, and IL-10) as per their nominal time points.

The next series concerns blautia. Briefly: Sugar fermentation in media lacking glucose (pH and optical density). The series is classed as cell-based.
The subject of series [2] is anaerobic commensal bacteria. Briefly: Carbon source usage profiling on Biolog PM01 and PM02A plates (OD 750 nm). The format is cell-based.
Series [3] is described as follows: Normal human volunteer study of D-xylose: serum and urine pharmacokinetics. The series is classed as in vivo, healthy, adult volunteers. From the text:
Blood and urine were collected at pre-specified pre- and post-ingestion time points to measure D-xylose levels and to characterize the systemic absorption profiles of D-xylose. Phoenix® WinNonLin®, Version 6.2.1, was used for PK analyses. Serum D-xylose concentrations were summarized by cohort using nominal sample times according to actual amount received using summary statistics (n, coefficient of variation [CV], mean, standard deviation [SD], median, minimum, and maximum). Evidence for the occurrence of steady-state was assessed graphically by comparing the time course of either trough or 2-hour post-ingestion serum concentrations of D-xylose as different levels of D-xylose. Accumulation was assessed by comparing the 2-hour post-first-ingestion serum levels with those observed at Week 2 (Day 15) and Week 4 (Day 28). […] Urine PK parameters for D-xylose levels included Ae(0-t) (cumulative amount of sweetener recovered in urine) and percent sweetener amount excreted over a 5-hour period.

The test system of a further series is GVHD. More on the design: species or system mice. The conditions noted are these: mouse, in vivo.
For series [4] the following is noted: human, in vivo. On the procedure:
D-xylose is a carbon source generally preferred by anaerobic bacteria. […] A parallel, double-blind, 5 cohort escalation food safety study was conducted to examine D-xylose in normal human volunteers. The study was a double-blind, single-center, parallel group study designed to evaluate the tolerability and potential microbiome changes induced by ingestion of D-xylose at 5 different amounts in healthy, adult volunteers enrolled at 1 study center in the United States (US).
Subjects were screened for eligibility within 21 days prior to the first planned ingestion of study sweetener on Day 1 (Baseline). […]
Subjects returned to the study center weekly on Days 8, 15, 22, and 28 for ingestion, tolerability, and compliance evaluations. Safety was evaluated on a continual basis through adverse events (AE) monitoring, clinical laboratory measurements, vital sign monitoring, physical examinations, electrocardiograms (ECGs), telephone follow-up, and electronic subject ingestion diaries. Stool was collected pre-ingestion and at pre-specified time points, and post-ingestion samples were evaluated for changes in the gut microbiome compared with Baseline for all subjects. […]
Safety was evaluated on a continual basis through AE monitoring, clinical laboratory measurements, vital sign monitoring, physical examinations, ECGs, telephone follow-up, and electronic subject ingestion diaries. […]

In another series the test system is Lactobacillus johnsonii. The series is classed as cell-based.
The subject of series [5] is Tregs in the large intestine. The conditions noted are these: mouse, in vivo; cited from earlier work.
In series [6] the test system is microbiome of the gut and the vagina. Details: species or system C57Bl/6 female mice. The conditions noted are these: mouse, in vivo. From the text:
The trillions of organisms forming the microbiome function as an organ system interconnected throughout the body. The possibility that modification of the microbiome in a given physical location may influence the microbiome at other sites in the body (distal augmentation) was investigated. Seven week old C57Bl/6 female mice were acclimatized for 7 days prior to the start of the study by daily handling and shuffling between cages. All mice were housed at three mice per cage in individually vented cages (Thoren, Hazleton, Pa.). At day 0, baseline fresh fecal pellets, and vaginal lavages with 100 μL of sterile double-distilled water were collected and immediately frozen at −80° C. for microbiome analysis. […] Water alone is not expected to influence the microbiome and acted as a negative control. […] The impact of oral vancomycin is therefore expected to be limited to the gastrointestinal tract such that microbiome changes elsewhere in the body (e.g. vagina) would be attributable to distal augmentation. […]
Isolation and sequencing of microbial DNA from the stool and vaginal samples was performed by DNA Genotek (Ottawa, ON, Canada). The V3-V4 region of the 16S ribosomal subunit was amplified with custom PCR primers and sequenced on an Illumina MiSeq to a minimum acceptable read depth of 25,000 sequences per sample. […]

Series [7] deals with human peripheral blood mononuclear cells (PBMCs). Briefly: Cytokine release by human PBMCs incubated with commensal bacteria, alone or combined with E. faecalis (Luminex). The format is cell-based. Particulars: for anti-inflammatory profile for a Th-1-driven condition such as GVHD: overall assessment. On the procedure:
An in vitro system was developed to efficiently test the inflammatory and immunomodulatory properties of different human commensal bacteria on human peripheral blood mononuclear cells (PBMCs). Experiments were carried out with 21 bacterial candidates to profile their anti-inflammatory properties against human PBMCs. The innate properties of bacteria alone on human PBMCs were tested as well as their ability to counteract the pro-inflammatory activity of Enterococcus feacalis.
Human PBMCs were isolated from fresh blood by density-gradient centrifugation using Ficoll (1-4). […] The results are presented in FIGS. 2-5 for all time points. […] The 24 h results are shown as a composite in FIG. 6 and with statistical analysis on individual cytokines in FIGS. 7-10. The results represent the properties of each bacterial species against human PBMCs and their ability to counteract inflammatory stimulation with E. faecalis in vitro.

The subject of a further series is tumors. Particulars: oral administration; anti-PD-1 and anti-CTLA-4 antibody therapies; cited from earlier work.

On to `O=C[C@H](O)[C@@H](O)[C@H](O)CO` [D-xylose], for which the “levels of serum interferon gamma over time” value in series [1] (2 g and 15 g D-xylose cohorts) was “trend for reduced levels”. In series [1] (all cohorts of the sweetener), the “subjects with normal serum CRP at Baseline and at least 1 post-ingestion CRP value >2.9 mg/L” value is 8.3%. Besides, the “augmentation (fermentation) of blautia” value with blautia is “specifically augments blautia”. For the same compound, the “use as a carbon source by bacterial strains” value in [2] is “used as a carbon source by several bacterial strains”. Moreover, in the series on serum endotoxin (mouse, in vivo), the “basal levels of serum endotoxin” value is “reduced these basal levels over time”, the “effect on increase in serum endotoxin level caused by cipro” value is reported as “appeared to counteract the increase” and the “effect on increase in serum endotoxin level caused by enro” value was “but not enro”. For the same compound, the “ingested amount recovered in urine within 5 hours post-ingestion” value in series [3] (1 g TID cohort, Days 1, 15 and 28) was “approximately 40%”. For the same compound, in [3] (1 to 15 g TID), the “serum D-xylose concentrations versus ingestion amount” value is “increased linearly with increasing ingestion amounts”. In series [3] (Day 15, 15 mg TID cohort, variability high), the “accumulation ratio of serum D-xylose” value was “approximately 1.9 fold”. Besides, the “accumulation ratio of serum D-xylose” value in series [3] (Day 28, 15 g TID) was 1.68. Moreover, in the series with GVHD, the “Blautia level in the intestinal flora” value was “expansion of Blautia in the intestinal flora” and the GVHD related survival result was “improved survival”. For the same compound, in [4], the “SAEs, severe AEs, subject deaths” value is listed as “No SAEs, severe AEs, or subject deaths” and the tolerability result is “well tolerated”. The “augmentation (fermentation) of lactobacillus” value in the series with Lactobacillus johnsonii is on record as “not lactobacillus”.

Turning to `CC(=O)O` [acetate], the “numbers of Tregs in the large intestine” value in series [5] was “restored normal numbers of Tregs”.

For the compound `CCN1CCN(c2cc3c(cc2F)c(=O)c(C(=O)O)cn3C2CC2)CC1` [enro, enrofloxacin, reference compound], the “serum endotoxin levels after antibiotic” value in the series on serum endotoxin (0.25 g/L in drinking water day −7 to day −2, measured 2 days after a 5 day course (day 0)) is “led to an increase in serum endotoxin levels”.

As to `CCC(=O)O` [propionate], the “numbers of Tregs in the large intestine” value in series [5] is given as “restored normal numbers of Tregs”.

`C[C@H](O)[C@H](O)[C@@H](O)[C@@H](O)C=O` [rhamnose]: the “augmentation (fermentation) of blautia” value in the series on blautia is recorded as “specifically augments blautia”. For the same compound, the “augmentation (fermentation) of lactobacillus” value with Lactobacillus johnsonii is listed as “not lactobacillus”.

On to `CN[C@H](CC(C)C)C(=O)N[C@H]1C(=O)N[C@@H](CC(N)=O)C(=O)N[C@H]2C(=O)N[C@H]3C(=O)N[C@H](C(=O)N[C@H](C(=O)O)c4cc(O)cc(O)c4-c4cc3ccc4O)[C@H](O)c3ccc(c(Cl)c3)Oc3cc2cc(c3O[C@@H]2O[C@H](CO)[C@@H](O)[C@H](O)[C@H]2O[C@H]2C[C@](C)(N)[C@H](O)[C@H](C)O2)Oc2ccc(cc2Cl)[C@H]1O` [vancomycin], for which the “impact on the microbiome of the gut (PCA at family level, fecal samples)” value in series [6] was “strong impact on the microbiome of the gut”. The “day 0 to day 6 pattern in vaginal samples (PCA)” value in series [6] (po) was “showed an overall difference”.

On to B. luti [EPV3], for which the “intrinsic inflammatory activity (induction of pro-inflammatory cytokines) compared to EPV 8” value in series [7] (bacterium alone, 24 h) was “relatively low intrinsic inflammatory activity”. In [7] (combination with EPV 8, 24 h), the “reduction of induction of pro-inflammatory cytokines by EPV 8, including IL-6, MCP-1, IL-12p70, IFNγ” value is “able to reduce”. In addition, the “anti-inflammatory profile for a Th-1-driven condition such as GVHD” value in series [7] is on record as “significantly desirable anti-inflammatory profile”.

As for B. wexlerae [EPV5], the “anti-inflammatory profile for a Th-1-driven condition such as GVHD” value in series [7] is listed as “suboptimal anti-inflammatory profile”.

Regarding Bacteroides, the “responsiveness to checkpoint inhibitor therapy in cancer” value with tumors is listed as “increases the responsiveness”.

As to Bifidobacterium, the “responsiveness to checkpoint inhibitor therapy in cancer” value in the series on tumors is “increases the responsiveness”.

With Lactobacillus, the “responsiveness to checkpoint inhibitor therapy in cancer” value with tumors is reported as “not”.
